# Source: patent publication EP1674096A2, “Hypoglycemics comprising organic zinc (II) complexes” (Japan Science and Technology Agency, priority 1999, dated 2001)
# Tests used:
# rat adipocyte = test: Inhibition of free fatty acid (FFA) release from epinephrine-stimulated rat adipocytes; type: cell-based; details: concentration inhibiting release of the fatty acid by 50 %, relative values with IC50 of VOSO4 regarded as 1.00 mM, 10^-5 M epinephrine, 3 hours at 37°C, glycine complex in aqueous solution, others in physiological saline
# Procedure: A pharmacological test was conducted as described below in accordance with the method reported in Biol.Pharm.Bull., 18, 719-725 (1995).
# A male Wistar rat weighing 200 g was exsanguinated under an anesthesia with ether, and a fat cell mass was isolated from a fat tissue around an epididymis according to the method of Road Bell (J. Biol. Chem. , 239, 375(1964)). The fat cell mass was cut into pieces using scissors, and digested for 1 hour at 37°C in a KRB buffer solution (5 mM Glucose, 120 mM NaCl, 1.27 mM CaCl2, 1.2 mM MgSO4, 4.75 mM KCl, 1.2 mM KH2PO4 and 24 […]; pH=7.4) supplemented with 20 mg of bovine serum albumin (BSA) and 2 mg of collagenase per ml. The fat cells were sieved through a nylon mesh (250 µm) whereby being made free from any undigested tissue, washed three times with the buffer similar to that described above except for containing no collagenase, and adjusted at 2.5 x 10^6 cells/ml.
# Then the reaction mixture was combined with 10^-5 M epinephrine and the resultant solution was incubated for 3 hours at 37°C. The reaction was quenched by cooling with ice, and the mixture was centrifuged for 10 minutes at 3000 rpm. The extracellular solution was examined for its free fatty acid (FFA) level using an NEFA kit whereby calculating an IC50 value.
# KK-A^y mice [1] = test: Body weight change in KK-A^y mice under daily intraperitoneal treatment (index of side effects); type: in vivo; details: intraperitoneally once a day, 4.5 or 2.5 mg Zn/kg depending on blood glucose, 13 to 15 days (Figures 9 to 11)
# Procedure: (§1) In the control group, 0.5 ml of the acacia solution was given.
# KK-A^y mice [2] = test: Glucose tolerance test in KK-A^y mice after 3 days of treatment; type: in vivo; details: 4 mg/kg once a day for 3 days, then fasted for 14 hours, compared with mice not receiving the complex (Figure 3)
# Procedure: Subsequently, KK-A^y mice as type II diabetes model animals and humans were subjected to the glucose tolerance tests to obtain blood glucose curves, which are shown in Figure 3 and Figure 4.
# In Figure 3, (a) denotes a blood glucose curve obtained in a glucose tolerance test in mice each of which received 4 mg/kg of Zn(PA)2(H2O)2 as an inventive zinc (II) complex once a day for 3 days and then fasted for 14 hours, and (b) denotes one in a control group in which the mice were not treated with the complex. In Figure 4, (a) denotes a blood glucose curve obtained in a glucose tolerance test in diabetes patients, while (b) denotes one in normal healthy volunteers.
# KK-A^y mice [3] = test: Glucose tolerance test in KK-A^y mice after 15 days of treatment; type: in vivo; details: KK-A^y mice fasted for 13 hours, glucose orally at 1 g/kg; compared with control mice (Figure 12)
# Procedure: 8-Week old KK-A^y mice were treated intraperitoneally once a day with a 5 % acacia solution in a control group (n=6) or with Zn(PA)2 (n=6), Zn(maltol)2 (n=7) or Zn(Cys-OMe)2 (n=6) dissolved in a 5 % acacia solution in the complex treatment groups.
# as §1
# (glucose tolerance test: A mouse was fasted for 13 hours and then administered orally with glucose at 1 g/kg, and then the blood glucose levels were determined at certain time intervals.)
# [4] = Glucose +, 6-methyl-picolinic acid and pyridine-2-acetic acid complexes in DMSO
Molecule,IC50 (rat adipocyte; [4]),IC50 (rat adipocyte; Glucose -),other results
"O=S(=O)([O-])[O-].[O]=[V+2] [VOSO4/5.4 or 2.3H2O, Oxovanadium sulfate, reference compound]",1 mM,1 mM,
Cc1cccnc1C(=O)O [Zn(3MPA)2],,0.42 mM,
O=C(O)c1cccc(Br)n1 [Zn(6BPA)2],,0.45 mM,
"Cc1cccc(C(=O)[O][Zn][O]C(=O)c2cccc(C)n2)n1 [Zn(6MPA)2(H2O), bis(6-methyl-picolinate)zinc(II)complex]",0.39 mM,,
"COC(=O)C(N)C[S-].COC(=O)C(N)C[S-].[Zn+2] [Zn(Cys-OMe)2, bis(L-cysteine methyl ester) zinc (II) complex]",,,body weight change (weight loss as an index of side effects) (KK-A^y mice [1]): no increase or decrease in the body weight was observed
O=C(O)C1CSCN1 [Zn(D-4Tia)2],,1.28 mM,
NC(=O)CC[C@H](N)C(=O)O [Zn(Gln)2],0.84 mM,,
O=c1cc(CO)occ1O [Zn(Koj)2],,0.91 mM,
O=C(O)C1CSCN1 [Zn(L-4Tia)2],,1.2 mM,
O=C([O-])c1cccnc1.O=C([O-])c1cccnc1.[Zn+2] [Zn(Nic)2/4H2O],0.82 mM,,
"O.O.O=C([O-])c1ccccn1.O=C([O-])c1ccccn1.[Zn+2] [trans-[Zn(PA)2H2O)2], trans-bis(picolinate) zinc (II) complex]",,,"blood glucose curve in glucose tolerance test (KK-A^y mice [2]): a reduced peak level of the blood glucose followed by a rapid decrease, as compared with the mice not receiving the complex and then recovered its almost normal blood glucose level after 180 minutes; body weight change (weight loss as an index of side effects) (KK-A^y mice [1]): not observed in most of the animals; glucose tolerance test after the administration of each complex for 15 days (KK-A^y mice [3]): an amelioration of the diabetes conditions when compared with the diabetes mice (control mice)"
bis(2-mercaptopyridine-N-oxide) zinc (II) complex [Zn(MPNO)2/0.3H2O],0.011 mM,0.013 mM,
bis(3-hydroxy-2-methyl-4-pyronate) zinc (II) complex [Zn(maltol)2/2.6H2O],0.57 mM,,"body weight change (weight loss as an index of side effects) (KK-A^y mice [1]): immediately after the treatment with the complex, the body weight was recovered in response to the reduction in the blood glucose and the reduction in the dose; glucose tolerance test after the administration of each complex for 15 days (KK-A^y mice [3]): an amelioration of the diabetes conditions when compared with the diabetes mice (control mice)"
bis(pyrrolidine-N-dithiocarbamate) zinc (II) complex [Zn(PCD)2],,0.049 mM,
cis-bis(threonine) zinc (II) complex [cis-[Zn(Thr)2(H2O)2]],,1.3 mM,
trans-bis(glycine) zinc (II) complex [Zn(Gly)2/1.0H2O],0.63 mM,0.84 mM,
